# Data from paper PMC10178848, “Modulating fast skeletal muscle contraction protects skeletal muscle in animal models of Duchenne muscular dystrophy” (The Journal of Clinical Investigation, 2023).
# System: GRMD plasma proteins
# Type: in vivo, dog
# Conditions: EDG-5506 treatment to GRMD baseline
structure (smiles),measurement,setting,value
O=c1ccc(-c2cnc(OCC(F)(F)F)nc2)nn1Cc1cncc(F)c1 [EDG-5506],Proteasome activator complex subunit 3 (PSME3): Change from GRMD Baseline (fraction),Decreased in GRMD,0.0977 fraction
same,Protein S100-A4 (S100A4): Change from GRMD Baseline (fraction),Decreased in GRMD,0.1824 fraction
same,Protein amnionless (AMN): Change from GRMD Baseline (fraction),Decreased in GRMD,0.1425 fraction
same,Protein jagged-1 (JAG1): Change from GRMD Baseline (fraction),Decreased in GRMD,0.2072 fraction
same,Retinol-binding protein 4 (RBP4): Change from GRMD Baseline (fraction),Decreased in GRMD,0.0942 fraction
same,Roundabout homolog 2 (ROBO2): Change from GRMD Baseline (fraction),Decreased in GRMD,0.1874 fraction
same,SLIT and NTRK-like protein 5 (SLITRK5): Change from GRMD Baseline (fraction),Decreased in GRMD,0.1091 fraction
same,SPARC (SPARC): Change from GRMD Baseline (fraction),Decreased in GRMD,0.0605 fraction
same,Sclerostin (SOST): Change from GRMD Baseline (fraction),Decreased in GRMD,0.197 fraction
same,Semaphorin-3E (SEMA3E): Change from GRMD Baseline (fraction),Decreased in GRMD,-0.0152 fraction
same,Semaphorin-5A (SEMA5A): Change from GRMD Baseline (fraction),Decreased in GRMD,0.0882 fraction
same,Serum albumin (ALB): Change from GRMD Baseline (fraction),Decreased in GRMD,0.068 fraction
same,Sialic acid-binding Ig-like lectin 6 (SIGLEC6): Change from GRMD Baseline (fraction),Decreased in GRMD,0.1345 fraction
same,Stem cell growth factor-alpha (CLEC11A): Change from GRMD Baseline (fraction),Decreased in GRMD,-0.071 fraction
same,T-lymphocyte surface antigen Ly-9 (LY9): Change from GRMD Baseline (fraction),Decreased in GRMD,0.0785 fraction
same,TGF-beta receptor type-2 (TGFBR2): Change from GRMD Baseline (fraction),Decreased in GRMD,-0.0644 fraction
same,Tropomyosin alpha-1 chain (TPM1): Change from GRMD Baseline (fraction),Decreased in GRMD,0.0152 fraction
same,Tumor necrosis factor receptor superfamily member 10B (TNFRSF10B): Change from GRMD Baseline (fraction),Decreased in GRMD,0.131 fraction
same,Tumor necrosis factor-inducible gene 6 protein (TNFAIP6): Change from GRMD Baseline (fraction),Decreased in GRMD,0.2046 fraction
same,Wnt inhibitory factor 1 (WIF1): Change from GRMD Baseline (fraction),Decreased in GRMD,0.0365 fraction
same,Activated Protein C (PROC): Change from GRMD Baseline (fraction),Increased in GRMD,-0.0147 fraction
same,Adiponectin (ADIPOQ): Change from GRMD Baseline (fraction),Increased in GRMD,-0.1461 fraction
same,Alanine aminotransferase 1 (GPT): Change from GRMD Baseline (fraction),Increased in GRMD,-0.0729 fraction
same,Alpha-2-antiplasmin (SERPINF2): Change from GRMD Baseline (fraction),Increased in GRMD,-0.0328 fraction
same,Apolipoprotein D (APOD): Change from GRMD Baseline (fraction),Increased in GRMD,-0.0675 fraction
same,Apolipoprotein L1 (APOL1): Change from GRMD Baseline (fraction),Increased in GRMD,-0.1374 fraction
same,Asialoglycoprotein receptor 1 (ASGR1): Change from GRMD Baseline (fraction),Increased in GRMD,-0.009 fraction
same,Bone morphogenetic protein 1 (BMP1): Change from GRMD Baseline (fraction),Increased in GRMD,0.0186 fraction
same,Breast cancer anti-estrogen resistance protein 3 (BCAR3): Change from GRMD Baseline (fraction),Increased in GRMD,-0.0831 fraction
same,C5a anaphylatoxin (C5): Change from GRMD Baseline (fraction),Increased in GRMD,0.2048 fraction
same,C-C motif chemokine 1 (CCL1): Change from GRMD Baseline (fraction),Increased in GRMD,-0.0825 fraction
same,C-C motif chemokine 3 (CCL3): Change from GRMD Baseline (fraction),Increased in GRMD,-0.078 fraction
same,C-X-C motif chemokine 5 (CXCL5): Change from GRMD Baseline (fraction),Increased in GRMD,-0.0608 fraction
same,CD63 antigen (CD63): Change from GRMD Baseline (fraction),Increased in GRMD,-0.0803 fraction
same,CD97 antigen (CD97): Change from GRMD Baseline (fraction),Increased in GRMD,-0.1124 fraction
same,CD109 antigen (CD109): Change from GRMD Baseline (fraction),Increased in GRMD,-0.0257 fraction
same,CD177 antigen (CD177): Change from GRMD Baseline (fraction),Increased in GRMD,-0.1306 fraction
same,Carbonic anhydrase 4 (CA4): Change from GRMD Baseline (fraction),Increased in GRMD,-0.0922 fraction
same,Caspase-3 (CASP3): Change from GRMD Baseline (fraction),Increased in GRMD,-0.0323 fraction
same,Cell adhesion molecule 3 (CADM3): Change from GRMD Baseline (fraction),Increased in GRMD,-0.0647 fraction
same,"Change from GRMD Baseline (fraction): 1-phosphatidylinositol 4,5-bisphosphate phosphodiesterase gamma-1 (PLCG1)",Increased in GRMD,-0.0855 fraction
same,"Change from GRMD Baseline (fraction): 14-3-3 protein family (YWHAB,YWHAE,YWHAG,YWHAH,YWHAQ,YWHAZ,SFN)",Increased in GRMD,-0.1463 fraction
same,Change from GRMD Baseline (fraction): 26S proteasome non-ATPase regulatory subunit 7 (PSMD7),Increased in GRMD,0.0373 fraction
same,Change from GRMD Baseline (fraction): 40S ribosomal protein S7 (RPS7),Increased in GRMD,-0.3231 fraction
same,Change from GRMD Baseline (fraction): A disintegrin and metalloproteinase with thrombospondin motifs 5 (ADAMTS5),Increased in GRMD,0.004 fraction
same,Change from GRMD Baseline (fraction): A disintegrin and metalloproteinase with thrombospondin motifs 15 (ADAMTS15),Increased in GRMD,-0.0189 fraction
same,Change from GRMD Baseline (fraction): AH receptor-interacting protein (AIP),Increased in GRMD,-0.1069 fraction
same,Change from GRMD Baseline (fraction): AMP Kinase (alpha2beta2gamma1) (PRKAA2 PRKAB2 PRKAG1),Increased in GRMD,-0.3422 fraction
same,"Change from GRMD Baseline (fraction): ATP synthase subunit beta, mitochondrial (ATP5B)",Increased in GRMD,0.3871 fraction
same,Change from GRMD Baseline (fraction): ATP-dependent RNA helicase DDX19B (DDX19B),Increased in GRMD,-0.2236 fraction
same,Change from GRMD Baseline (fraction): Acidic leucine-rich nuclear phosphoprotein 32 family member B (ANP32B),Increased in GRMD,-0.3439 fraction
same,Change from GRMD Baseline (fraction): Activin receptor type-1B (ACVR1B),Increased in GRMD,-0.0675 fraction
same,Change from GRMD Baseline (fraction): Adenylate kinase isoenzyme 1 (AK1),Increased in GRMD,-0.5663 fraction
same,Change from GRMD Baseline (fraction): Adenylosuccinate lyase (ADSL),Increased in GRMD,0.1427 fraction
same,Change from GRMD Baseline (fraction): Afamin (AFM),Increased in GRMD,-0.1952 fraction
same,Change from GRMD Baseline (fraction): Aflatoxin B1 aldehyde reductase member 2 (AKR7A2),Increased in GRMD,-0.1733 fraction
same,Change from GRMD Baseline (fraction): Alcohol dehydrogenase [NADP(+)] (AKR1A1),Increased in GRMD,-0.2833 fraction
same,Change from GRMD Baseline (fraction): Aminoacylase-1 (ACY1),Increased in GRMD,-0.4238 fraction
same,Change from GRMD Baseline (fraction): Amphoterin-induced protein 2 (AMIGO2),Increased in GRMD,0.0688 fraction
same,Change from GRMD Baseline (fraction): Annexin A6 (ANXA6),Increased in GRMD,-0.2759 fraction
same,Change from GRMD Baseline (fraction): Anterior gradient protein 2 homolog (AGR2),Increased in GRMD,-0.0848 fraction
same,Change from GRMD Baseline (fraction): Apolipoprotein E (APOE),Increased in GRMD,-0.1554 fraction
same,Change from GRMD Baseline (fraction): Apolipoprotein E (isoform E3) (APOE),Increased in GRMD,0.0588 fraction
same,Change from GRMD Baseline (fraction): Apolipoprotein E (isoform E4) (APOE),Increased in GRMD,-0.0389 fraction
same,Change from GRMD Baseline (fraction): Apoptosis regulator Bcl-2 (BCL2),Increased in GRMD,-0.1414 fraction
same,Change from GRMD Baseline (fraction): Artemin (ARTN),Increased in GRMD,-0.0443 fraction
same,Change from GRMD Baseline (fraction): Arylsulfatase B (ARSB),Increased in GRMD,-0.0585 fraction
same,Change from GRMD Baseline (fraction): B-cell receptor CD22 (CD22),Increased in GRMD,-0.1198 fraction
same,Change from GRMD Baseline (fraction): Baculoviral IAP repeat-containing protein 5 (BIRC5),Increased in GRMD,-0.1027 fraction
same,Change from GRMD Baseline (fraction): Basal Cell Adhesion Molecule (BCAM),Increased in GRMD,-0.0829 fraction
same,Change from GRMD Baseline (fraction): Bcl-2-like protein 1 (BCL2L1),Increased in GRMD,-0.0786 fraction
same,Change from GRMD Baseline (fraction): Bone sialoprotein 2 (IBSP),Increased in GRMD,-0.0968 fraction
same,Change from GRMD Baseline (fraction): C-C motif chemokine 13 (CCL13),Increased in GRMD,-0.0908 fraction
same,Change from GRMD Baseline (fraction): C-C motif chemokine 23 (CCL23),Increased in GRMD,-0.0571 fraction
same,Change from GRMD Baseline (fraction): CCAAT/enhancer-binding protein beta (CEBPB),Increased in GRMD,-0.0589 fraction
same,Change from GRMD Baseline (fraction): CD59 glycoprotein (CD59),Increased in GRMD,-0.0497 fraction
same,Change from GRMD Baseline (fraction): Calcineurin (PPP3CA PPP3R1),Increased in GRMD,-0.2961 fraction
same,Change from GRMD Baseline (fraction): Calcineurin subunit B type 1 (PPP3R1),Increased in GRMD,-0.1572 fraction
same,Change from GRMD Baseline (fraction): Calcium/calmodulin-dependent protein kinase type 1 (CAMK1),Increased in GRMD,-0.1284 fraction
same,Change from GRMD Baseline (fraction): Calcium/calmodulin-dependent protein kinase type 1D (CAMK1D),Increased in GRMD,-0.0749 fraction
same,Change from GRMD Baseline (fraction): Calcium/calmodulin-dependent protein kinase type II subunit alpha (CAMK2A),Increased in GRMD,-0.4545 fraction
same,Change from GRMD Baseline (fraction): Calcium/calmodulin-dependent protein kinase type II subunit beta (CAMK2B),Increased in GRMD,-0.4519 fraction
same,Change from GRMD Baseline (fraction): Calcium/calmodulin-dependent protein kinase type II subunit delta (CAMK2D),Increased in GRMD,-0.3407 fraction
same,Change from GRMD Baseline (fraction): Calpain I (CAPN1 CAPNS1),Increased in GRMD,-0.011 fraction
same,Change from GRMD Baseline (fraction): Calpastatin (CAST),Increased in GRMD,-0.036 fraction
same,Change from GRMD Baseline (fraction): Carbonic anhydrase 3 (CA3),Increased in GRMD,-0.4126 fraction
same,Change from GRMD Baseline (fraction): Cardiotrophin-1 (CTF1),Increased in GRMD,-0.0756 fraction
same,Change from GRMD Baseline (fraction): Catalase (CAT),Increased in GRMD,-0.1548 fraction
same,Change from GRMD Baseline (fraction): Choline/ethanolamine kinase (CHKB),Increased in GRMD,-0.0698 fraction
same,Change from GRMD Baseline (fraction): Chymase (CMA1),Increased in GRMD,-0.0479 fraction
same,Change from GRMD Baseline (fraction): Clusterin (CLU),Increased in GRMD,-0.1079 fraction
same,Change from GRMD Baseline (fraction): Complement component C6 (C6),Increased in GRMD,0.1732 fraction
same,Change from GRMD Baseline (fraction): Complement component C8 (C8A C8B C8G),Increased in GRMD,-0.1065 fraction
same,Change from GRMD Baseline (fraction): Complement factor D (CFD),Increased in GRMD,-0.1183 fraction
same,Change from GRMD Baseline (fraction): Creatine kinase M-type (CKM),Increased in GRMD,-0.3439 fraction
same,Change from GRMD Baseline (fraction): Creatine kinase M-type:Creatine kinase B-type heterodimer (CKB CKM),Increased in GRMD,-0.3657 fraction
same,Change from GRMD Baseline (fraction): Cyclin-dependent kinase inhibitor 1B (CDKN1B),Increased in GRMD,-0.1686 fraction
same,Change from GRMD Baseline (fraction): Cysteine and glycine-rich protein 3 (CSRP3),Increased in GRMD,-0.0108 fraction
same,Change from GRMD Baseline (fraction): Cytochrome c (CYCS),Increased in GRMD,-0.561 fraction
same,Change from GRMD Baseline (fraction): DNA repair protein RAD51 homolog 1 (RAD51),Increased in GRMD,-0.1205 fraction
same,Change from GRMD Baseline (fraction): Desmoglein-1 (DSG1),Increased in GRMD,-0.0821 fraction
same,Change from GRMD Baseline (fraction): Dickkopf-like protein 1 (DKKL1),Increased in GRMD,-0.0601 fraction
same,Change from GRMD Baseline (fraction): Down syndrome cell adhesion molecule (DSCAM),Increased in GRMD,-0.0864 fraction
same,Change from GRMD Baseline (fraction): Dual specificity mitogen-activated protein kinase kinase 1 (MAP2K1),Increased in GRMD,-0.3654 fraction
same,Change from GRMD Baseline (fraction): Dual specificity protein phosphatase 3 (DUSP3),Increased in GRMD,-0.3709 fraction
same,Change from GRMD Baseline (fraction): Dynein light chain roadblock-type 1 (DYNLRB1),Increased in GRMD,-0.5348 fraction
same,Change from GRMD Baseline (fraction): Ectonucleoside triphosphate diphosphohydrolase 1 (ENTPD1),Increased in GRMD,-0.1101 fraction
same,Change from GRMD Baseline (fraction): Endothelin-converting enzyme 1 (ECE1),Increased in GRMD,-0.1039 fraction
same,Change from GRMD Baseline (fraction): Ephrin type-A receptor 1 (EPHA1),Increased in GRMD,-0.0912 fraction
same,Change from GRMD Baseline (fraction): Ephrin type-B receptor 6 (EPHB6),Increased in GRMD,0.1966 fraction
same,Change from GRMD Baseline (fraction): Epidermal growth factor (EGF),Increased in GRMD,-0.0588 fraction
same,Change from GRMD Baseline (fraction): Epidermal growth factor receptor variant III (EGFR),Increased in GRMD,-0.052 fraction
same,Change from GRMD Baseline (fraction): Erythropoietin receptor (EPOR),Increased in GRMD,-0.0772 fraction
same,Change from GRMD Baseline (fraction): Estrogen receptor (ESR1),Increased in GRMD,-0.0792 fraction
same,Change from GRMD Baseline (fraction): Eukaryotic translation initiation factor 4H (EIF4H),Increased in GRMD,-0.4334 fraction
same,Change from GRMD Baseline (fraction): Eukaryotic translation initiation factor 4 gamma 2 (EIF4G2),Increased in GRMD,-0.3268 fraction
same,Change from GRMD Baseline (fraction): Extracellular matrix protein 1 (ECM1),Increased in GRMD,-0.1471 fraction
same,Change from GRMD Baseline (fraction): Fibroblast growth factor 8 isoform B (FGF8),Increased in GRMD,-0.0878 fraction
same,Change from GRMD Baseline (fraction): Fibroblast growth factor 9 (FGF9),Increased in GRMD,-0.0286 fraction
